Assay results as given in patent US6355673B1, “Substituted diaminocarboxylic acids” (Aventis Pharma Deutschland GmbH, priority 1997, dated 2002).

Key:
stromelysin (MMP-3) = target: T1, stromelysin (MMP-3) (Homo sapiens, UniProt P08254); assay: Enzyme inhibition of the catalytic domain of human stromelysin (fluorogenic substrate); type: biochemical; conditions: 15 min preincubation, pH=6.5, fluorescence 328 nm (ex)/393 nm (em)
T1 construct: enzymatic activity of the catalytic domains of human stromelysin and of neutrophil collagenase; made in house
Experimental: (§1) Preparation and determination of the enzymatic activity of the catalytic domains of human stromelysin and of neutrophil collagenase.
(§2) The enzymes stromelysin (MMP-3) and neutrophil collagenase (MMP-8) were prepared according to Ye et al. (Biochemistry; 31 (1992) pages 11231-11235). To measure the enzyme activity or the enzyme inhibitor action, 70 μl of buffer solution and 10 μl of enzyme solution are incubated for 15 min with 10 μl of a 10% strength (v/v) aqueous dimethyl sulfoxide solution, which optionally contains the enzyme inhibitor. After addition of 10 μl of a 10% strength (v/v) aqueous dimethyl sulfoxide solution which contains 1 mil/L of the substrates, the enzyme reaction is monitored by fluorescence spectroscopy (328 nm (ex)/393 nm(em)). The enzyme activity is shown as the extinction increase/min. The IC50 values listed in Table 2 are determined as those inhibitor concentrations which in each case lead to a 50% inhibition of the enzyme.
(§3) The buffer solution contains 0.05% Brij (Sigma, Deisenhofen, Germany) and also 0.1 mol/L tris/HCl, 0.1 mol/L NaCl, 0.01 mol/L CaCl2 and 0.1 mol/L piperazine-N,N′-bis(2-ethanesulfonic acid) (pH=6.5). The enzyme solution contains 5 μg/ml of one of the enzyme domains prepared according to Ye et al. The substrate solution contains 1 mil/L of the fluorogenic substrate (7-methoxycoumarin-4-yl)acetyl-Pro-Leu-Gly-Leu-3-(2′,4′-dinitrophenyl)-L-2,3-diaminopropionyl-Ala-Arg-NH2 (Bachem, Heidelberg, Germany).

[1] = target: T2, neutrophil collagenase (MMP-8) (Homo sapiens, UniProt P22894); assay: Enzyme inhibition of the catalytic domain of neutrophil collagenase (fluorogenic substrate); type: biochemical; conditions: 15 min preincubation, pH=6.5, fluorescence 328 nm (ex)/393 nm (em)
T2 construct: enzymatic activity of the catalytic domains of human stromelysin and of neutrophil collagenase; made in house
Experimental: as §1, §2, §3

T2 sequence (P22894 100-262 limits assumed): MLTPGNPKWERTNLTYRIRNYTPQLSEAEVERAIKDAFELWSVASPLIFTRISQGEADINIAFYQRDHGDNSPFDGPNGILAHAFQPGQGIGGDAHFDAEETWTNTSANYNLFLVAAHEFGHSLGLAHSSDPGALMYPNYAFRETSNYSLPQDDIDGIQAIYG
T1 sequence (P08254 100-272 limits assumed): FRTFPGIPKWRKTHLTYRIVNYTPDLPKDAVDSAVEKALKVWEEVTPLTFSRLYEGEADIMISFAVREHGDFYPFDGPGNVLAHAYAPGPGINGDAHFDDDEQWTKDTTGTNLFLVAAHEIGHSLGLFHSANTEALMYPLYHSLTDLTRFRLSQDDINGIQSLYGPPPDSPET

| IC50 (stromelysin (MMP-3)) [nM] | IC50 [1] [nM] | SMILES |
| --- | --- | --- |
| 5 | 2 | O=C(CC(C(=O)O)c1ccccc1)NCCC[C@@H](NS(=O)(=O)c1ccc(-c2ccc(Cl)cc2)cc1)C(=O)O (single isomer, unassigned) [Example 38] |
| 20 | 30 | O=C(CC(C(=O)O)c1ccccc1)NCCC[C@@H](NS(=O)(=O)c1ccc(-c2ccc(Cl)cc2)cc1)C(=O)O (single isomer, unassigned) [Example 39] |
| 6 | 2 | O=C(NCCC[C@H](NS(=O)(=O)c1ccc(-c2ccc(Cl)cc2)cc1)C(=O)O)NS(=O)(=O)c1ccccc1 (single isomer, unassigned) [Example 61] |
| 50 | 7 | NC(=O)NCCC[C@@H](NS(=O)(=O)c1ccc(-c2ccc(Cl)cc2)cc1)C(=O)O [Example 1, (R)-(4-Chlorobiphenylsulfonyl)citrulline] |
| 20 | 6 | CC(C)(C)OC(=O)NCCCC[C@@H](NS(=O)(=O)c1ccc(-c2ccc(Cl)cc2)cc1)C(=O)O [Example 2, R-(4-Chlorobiphenylsulfonyl)-Lys(Boc)-OH] |
| 90 | 20 | Cc1oncc1C(=O)NCCCC[C@@H](NS(=O)(=O)c1ccc(-c2ccc(Cl)cc2)cc1)C(=O)O [Example 4, 4-Chlorobiphenylsulfonyl-N-epsilon-(5-methylisoxazol-4-carbonyl)-Lys-OH] |
| 50 | 4 | O=C(NCCC[C@H](NS(=O)(=O)c1ccc(-c2ccc(Cl)cc2)cc1)C(=O)O)NS(=O)(=O)c1ccccc1 [Example 5, (4-Chlorobiphenylsulfonyl)-N-delta-(phenylsulfonylamino-carbonyl)-Orn-OH] |
| 4 | 2 | O=C(O)[C@@H](CCCN1Cc2ccccc2C1=O)NS(=O)(=O)c1ccc(-c2ccc(Cl)cc2)cc1 [Example 7, 2-(2R)-(4-Chlorobiphenylsulfonylamino)-5-(1-oxo-1,3-dihydro-isoindol-2-yl)pentanoic acid] |
| 60 | 70 | CC(=O)NCCCC[C@@H](NS(=O)(=O)CCc1ccc(-c2ccccc2)cc1)C(=O)O [Example 9, R-(4-Biphenylethylsulfonyl)-N-epsilon-acetyl-Lys-OH] |
| 60 | 10 | NCCCC[C@H](NS(=O)(=O)c1ccc(-c2ccc(Cl)cc2)cc1)C(=O)O [Example 12] |
| 5 | 3 | CC(C)(C)OC(=O)NCCC[C@H](NS(=O)(=O)c1ccc(-c2ccc(Cl)cc2)cc1)C(=O)O [Example 14] |
| 20 | 8 | O=C(NCCC[C@H](NS(=O)(=O)c1ccc(-c2ccc(Cl)cc2)cc1)C(=O)O)OCc1ccccc1 [Example 15] |
| 20 | 10 | O=C(NCCCC[C@H](NS(=O)(=O)c1ccc(-c2ccc(Cl)cc2)cc1)C(=O)O)OCc1ccccc1 [Example 16] |
| 70 | 10 | CC(=O)NCSC[C@@H](NS(=O)(=O)c1ccc(-c2ccc(Cl)cc2)cc1)C(=O)O [Example 18] |
| 20 | 5 | O=C(NCCC[C@H](NS(=O)(=O)c1ccc(-c2ccc(Cl)cc2)cc1)C(=O)O)c1cnccn1 [Example 19] |
| 40 | 7 | Cc1oncc1C(=O)NCCC[C@@H](NS(=O)(=O)c1ccc(-c2ccc(Cl)cc2)cc1)C(=O)O [Example 20] |
| 70 | 20 | Cc1ccc(S(=O)(=O)NC(=N)NCCC[C@H](NS(=O)(=O)c2ccc(-c3ccc(Cl)cc3)cc2)C(=O)O)cc1 [Example 21] |
| 80 | 80 | Cc1ccc(S(=O)(=O)NC(=N)NCCC[C@@H](NS(=O)(=O)c2ccc(-c3ccc(Cl)cc3)cc2)C(=O)O)cc1 [Example 22] |
| 40 | 5 | NC(=O)NCCCC[C@@H](NS(=O)(=O)c1ccc(-c2ccc(Cl)cc2)cc1)C(=O)O [Example 23] |
| 30 | 5 | NC(=O)NCCCC[C@H](NS(=O)(=O)c1ccc(-c2ccc(Cl)cc2)cc1)C(=O)O [Example 24] |
| 60 | 10 | N/C(=N\[N+](=O)[O-])NCCC[C@H](NS(=O)(=O)c1ccc(-c2ccc(Cl)cc2)cc1)C(=O)O [Example 25] |
| 60 | 7 | N/C(=N\[N+](=O)[O-])NCCC[C@@H](NS(=O)(=O)c1ccc(-c2ccc(Cl)cc2)cc1)C(=O)O [Example 26] |
|  | 2 | CC(C)(C)OC(=O)NCCC[C@H](NS(=O)(=O)c1ccc(-c2ccc(Cl)cc2)cc1)C(=O)O [Example 36] |
| 5 | 2 | O=C(NCCC[C@@H](NS(=O)(=O)c1ccc(-c2ccc(Cl)cc2)cc1)C(=O)O)C1CC1 [Example 41] |

| IC50 (stromelysin (MMP-3)) [nM] | IC50 [1] [nM] | SMILES |
| --- | --- | --- |
| 10 | 3 | O=C(NCCC[C@@H](NS(=O)(=O)c1ccc(-c2ccc(Cl)cc2)cc1)C(=O)O)Nc1ccccc1 [Example 42] |
| 40 | 20 | CN(C)c1ccc(C(=O)NCCC[C@@H](NS(=O)(=O)c2ccc(-c3ccc(Cl)cc3)cc2)C(=O)O)cc1 [Example 43] |
| 30 | 6 | CC(=O)Oc1ccccc1C(=O)NCCC[C@H](NS(=O)(=O)c1ccc(-c2ccccc2)cc1)C(=O)O [Example 44] |
| 20 | 4 | O=C(NCCC[C@H](NS(=O)(=O)c1ccc(-c2ccccc2)cc1)C(=O)O)c1ccccc1O [Example 45] |
| 10 | 3 | CC(C)(C)CC(=O)NCCC[C@@H](NS(=O)(=O)c1ccc(-c2ccc(Cl)cc2)cc1)C(=O)O [Example 46] |
| 10 | 3 | O=C(NCCC[C@@H](NS(=O)(=O)c1ccc(-c2ccc(Cl)cc2)cc1)C(=O)O)c1ccc(F)cc1 [Example 47] |
| 20 | 7 | O=C(NCCC[C@@H](NS(=O)(=O)c1ccc(-c2ccc(Cl)cc2)cc1)C(=O)O)c1ccc2c(c1)OCO2 [Example 48] |
| 20 | 3 | CC(C)(C)CC(=O)NCCC[C@H](NS(=O)(=O)c1ccc(-c2ccc(Cl)cc2)cc1)C(=O)O [Example 49] |
| 6 | 2 | O=C(NCCC[C@H](NS(=O)(=O)c1ccc(-c2ccc(Cl)cc2)cc1)C(=O)O)c1ccccn1 [Example 50] |
| 20 | 3 | O=C(NCCC[C@H](NS(=O)(=O)c1ccc(-c2ccc(Cl)cc2)cc1)C(=O)O)c1cccnc1 [Example 51] |
| 20 | 10 | COc1ccc(C(=O)NCCC[C@H](NS(=O)(=O)c2ccc(-c3ccc(Cl)cc3)cc2)C(=O)O)cc1OC [Example 52] |
| 30 | 6 | C[C@H](NC(=O)OC(C)(C)C)C(=O)NCCC[C@H](NS(=O)(=O)c1ccc(-c2ccc(Cl)cc2)cc1)C(=O)O [Example 53] |
| 7 | 3 | O=C(CC(C(=O)O)c1ccccc1)NCCC[C@H](NS(=O)(=O)c1ccc(-c2ccc(Cl)cc2)cc1)C(=O)O (stereo partly shown) [Example 55] |
| 10 | 8 | COc1ccc(S(=O)(=O)NCCC[C@H](NS(=O)(=O)c2ccc(-c3ccc(Cl)cc3)cc2)C(=O)O)cc1 [Example 56] |
| 40 | 8 | CC(C)(C)C(=O)NCCC[C@H](NS(=O)(=O)c1ccc(-c2ccc(Cl)cc2)cc1)C(=O)O [Example 57] |
| 5 | 1 | CN(C)c1ccc(-c2ccc(S(=O)(=O)N[C@@H](CCCNC(=O)OC(C)(C)C)C(=O)O)cc2)cc1 [Example 59] |
| 10 | 10 | COc1ccc(S(=O)(=O)NCCC[C@H](NS(=O)(=O)c2ccc(-c3ccc(Cl)cc3)cc2)C(=O)O)cc1OC [Example 60] |
| 5 | 2 | O=C(NCCC[C@H](NS(=O)(=O)c1ccc(-c2ccc(Cl)cc2)cc1)C(=O)O)C1CC1 [Example 62] |
| 10 | 2 | O=C(O)[C@H](CCCN(C(=O)C1CC1)C(=O)C1CC1)NS(=O)(=O)c1ccc(-c2ccc(Cl)cc2)cc1 [Example 63] |
| 30 | 2 | O=C(O)C1CC1C(=O)NCCC[C@H](NS(=O)(=O)c1ccc(-c2ccc(Cl)cc2)cc1)C(=O)O (stereo partly shown) [Example 64] |
| 10 | 2 | O=C(NCCC[C@H](NS(=O)(=O)c1ccc(-c2ccc(Cl)cc2)cc1)C(=O)O)C1CCC1 [Example 66] |
| 4 | 2 | CC1CC1C(=O)NCCC[C@H](NS(=O)(=O)c1ccc(-c2ccc(Cl)cc2)cc1)C(=O)O (stereo partly shown) [Example 69] |
| 10 | 3 | O=C(NCCC[C@H](NS(=O)(=O)c1ccc(-c2ccc(Cl)cc2)cc1)C(=O)O)c1ccc(F)cc1 [Example 71] |
| 20 | 6 | O=C(NCCC[C@H](NS(=O)(=O)c1ccc(-c2ccc(Cl)cc2)cc1)C(=O)O)c1ccc(C(F)(F)F)cc1 [Example 72] |

| SMILES | IC50 (stromelysin (MMP-3)) [nM] | IC50 [1] [nM] |
| --- | --- | --- |
| CC1(C)C(C(=O)NCCC[C@H](NS(=O)(=O)c2ccc(-c3ccc(Cl)cc3)cc2)C(=O)O)C1(C)C [Example 70] | 10 | 3 |
